Results on 3 compounds are retold here after US8273771B2, “Ischemic disorder or disease inhibitors” (Pronas Pharma AB, priority 2007, dated 2012).

The test system of the assay is rats with induced SAH. Kind of assay: Autoradiographic measurements of regional and global CBF after SAH. Format: in vivo, rat. The conditions noted are these: for reduction in regional CBF (rCBF) after SAH: 18 brain regions. The protocol:
In addition they were treated with 20-50 μl; 10^-6 M of SB386023-b (a kind gift from Dr A A Parsons, GSK, UK) or the same volume of vehicle repeatedly 6, 12, 24 and 36 h after the induced SAH. This dose was based on a previous in vivo study with SAH.
In addition, they were treated with the PKC inhibitor RO-31-7549 (Calbiochem, Sweden) or vehicle in conjunction with the operation and after the induced SAH. All animals treated with RO-31-7549 received […] injections intracisternally of RO-31-7549 or vehicle in similar volume. Thus, 20 to 50 μl 10-^6 mol/L of RO-31-7549 was injected intracisternally at 30 mins before the induced SAH and after the SAH 20 μl 10-^6 mol/L of RO-31-7549 was administered repeatedly after 3, 6, 12, 24 and 32 h from the first RO-31-7549 injection. This dose was chosen on the basis of previous detailed work on isolated cerebral arteries (Hansen-Schwartz et al, 2002), the dose was chosen at near maximum inhibition and calculation of cerebrospinal fluid volume/turnover.
Regional and global cerebral blood flow was measured by a model originally described by Sakurada et al., (1978) and modified by Gjedde et al., (1980). In brief, after 48 hours of observation rats in the various groups (sham, SAH+vehicle and SAH treated with the raf inhibitor) were anaesthetized using 5% halothane in N2O/O2 (30:70). The animal was intubated and artificially ventilated with inhalation of 0.5-1.5% halothane in N2O/O2 (70:30) during the surgical procedure. The anaesthesia and the respiration were monitored by regularly withdrawing arterial blood samples for blood gas analysis (Radiometer AS, Denmark). A catheter to measure MABP was placed in the right femoral artery and a catheter for blood sampling was placed in the left femoral artery. This catheter was connected to a constant velocity withdrawal pump (Harvard apparatus 22, USA) for mechanical integration of tracer concentration. In addition, a catheter was inserted in one femoral vein for injection of heparin and for infusion of the radioactive tracer. The MABP was continuously monitored with a Powerlab Unit (ADInstruments, UK). A temperature probe was inserted into the rectum of the rat to record the temperature, which was regularly maintained at 37° C. The hematocrit was measured by a hematocrit centrifuge (Beckman Microfuge 11, USA). After 30 minutes of equilibration a bolus injection of 50 uCi of 14Ciodoantipyrine 4[N-methyl-14C] (Perkin-Elmer, Boston, USA) was given i.v. Arterial blood (122 μl) was withdrawn over 20 seconds. Immediately after this the animal was decapitated, the brain removed and immersed in isopentane (J. T. Baker, Deventer, Netherlands) chilled to −50° C. The arterial blood sample was transferred to liquid scintillation counting vials containing 1 ml mixture of Soluene-350 (Perkin-Elmer, Boston, USA) and Isopropanol (J. T. Baker, Deventer, Netherlands) (1:1). After 2 hours at 60° C., 0.2 ml of 30% hydrogen peroxide was added to the vials, and the samples were maintained at room temperature for 15-30 minutes. Thereafter the samples were kept at 60° C. for 30 minutes and 10-15 ml Hionic-Fluor (Perkin-Elmer, Foster, Calif., USA) was added. The β-radioactivity scintillation counting was performed on the samples with a program that included quench correction (Packard 2000 CA, Denmark). The 14C activity in the tissue was determined after sectioning the brain in 20 μm sections at −20° C. in a cryostat (Wild Leitz A/S, Glostrup, Denmark). The sections were exposed to x-ray films (Kodak, Denmark) together with 14C methylmethacrylate standards (Amersham Life Science, England) and exposed the films for 20 days. Densities of the autoradiograms were measured with a Macintosh computer equipped with an analog CF 4/1 camera (Kaiser, Germany) and a transparency flat viewer (Color-Control 5000, Weilheim, Germany). The 14C content was determined in several brain regions (see Table 2). […]

Setting [1] is: intracisternal injections from 30 min before SAH and repeatedly after.

As for `Cn1cc(C2=C(c3cn(CCCN)c4ccccc34)C(=O)NC2=O)c2ccccc21` [RO-31-7549], under setting [1], the “global reduction in CBF after SAH” value was “prevented the marked reduction in CBF” and the “reduction in regional CBF (rCBF) after SAH” value (“reduction in regional CBF” below) is recorded as “prevented this reduction in rCBF”.

For the compound `Oc1cc(-c2nc(-c3ccccc3)[nH]c2-c2ccncc2)ccc1Cl` [SB386023-b], under “measured at 48 h, treatment 6 h after the SAH, control 140±6, SAH 63±2”, the “global cerebral blood flow” value is 128±4 ml/100 g/min. The “reduction in regional CBF” value (treatment at 6 h after SAH) was “prevented this reduction in rCBF”.

Consider `N#CC(=C(/N)Sc1ccccc1N)/C(C#N)=C(\N)Sc1ccccc1N` [U0126], for which the “reduction in regional CBF” value is “prevented this reduction in rCBF” (treatment at 0 h / in conjunction with the SAH) and “prevented this reduction in rCBF” (treatment at 6 h after SAH).
